Molecules are shown by their SMILES.

This test concerns calcium/calmodulin (Ca/CAM)-independent cGMP PDE. The test can be described thus: Phosphodiesterase activity: in vitro PDE inhibition, modified "batch" method of Thompson and Appleman. As to conditions: selectivity between Ca/CAM-independent cGMP PDE and cGMP-inhibited cAMP PDE (cAMP IC50 / cGMP IC50). It counts as biochemical, rabbit. From the text:
The calcium/calmodulin (Ca/CAM)-independent cGMP PDE and the cGMP-inhibited cAMP PDE enzymes are obtained from rabbit platelets whilst, of the four major PDE enzymes of the rat kidney, the Ca/CAM-dependent cGMP PDE (fraction I) is isolated.

In the case of `CCCn1cnc2c(=O)[nH]c(-c3ccccc3OCC)nc21` [Example 1, 2-(2-Ethoxyphenyl)-9-n-propylpurin-6-one], the “SELECTIVITY RATIO” value is on record as >1,030.

Turning to `CCCn1cnc2c(=O)[nH]c(-c3cc(S(=O)(=O)N4CCN(C)CC4)ccc3OCC)nc21` [Example 3, 2-[2-Ethoxy-5-(4-methyl-1-piperazinylsulphonyl)phenyl]-9-n-propylpurin-6-one], the “S[…]” value is listed as 12,500.

`CCCn1cnc2c(=O)[nH]c(-c3cc(S(=O)(=O)N4CCNCC4)ccc3OCC)nc21` [Example 2, 2-[2-Ethoxy-5-(1-piperazinylsulphonyl)phenyl]-9-n-propylpurin-6-one]: the “SELECTIVITY RATIO” value was 6,250.

These data come from patent publication EP0647227B1, “PURINONE ANTIANGINAL AGENTS” (Pfizer Limited, priority 1992, dated 1994).
